# In the NIST ThermoML archive (doi:10.1021/je2003012):
# Numbers after ± are expanded uncertainties.
# Experiment: relative permittivity at various frequencies (dimensionless); wn = mass fraction of the nth substance listed
# Conditions: Liquid, direct capacitance:P =
compound,measurement,setting,value
O=C=O [carbon dioxide] + CCO,relative permittivity,"304.9 K, 29800 kPa, w2 = 0.152",2.85 ± 0.16
same,relative permittivity,"312.8 K, 8000 kPa, w2 = 0.212",2.8 ± 0.15
same,relative permittivity,"312.8 K, 9300 kPa, w2 = 0.212",2.86 ± 0.14
same,relative permittivity,"312.8 K, 11200 kPa, w2 = 0.212",2.94 ± 0.14
same,relative permittivity,"312.8 K, 11500 kPa, w2 = 0.212",2.94 ± 0.14
same,relative permittivity,"312.8 K, 14200 kPa, w2 = 0.212",3 ± 0.14
same,relative permittivity,"312.8 K, 14300 kPa, w2 = 0.212",3.01 ± 0.14
same,relative permittivity,"312.8 K, 14900 kPa, w2 = 0.212",3.03 ± 0.14
same,relative permittivity,"312.8 K, 15800 kPa, w2 = 0.212",3.05 ± 0.14
same,relative permittivity,"312.8 K, 17400 kPa, w2 = 0.212",3.11 ± 0.14
same,relative permittivity,"312.8 K, 18000 kPa, w2 = 0.212",3.14 ± 0.14
same,relative permittivity,"312.8 K, 20000 kPa, w2 = 0.212",3.17 ± 0.14
same,relative permittivity,"312.8 K, 20600 kPa, w2 = 0.212",3.18 ± 0.14
same,relative permittivity,"312.8 K, 22200 kPa, w2 = 0.212",3.22 ± 0.14
same,relative permittivity,"312.8 K, 22800 kPa, w2 = 0.212",3.23 ± 0.14
same,relative permittivity,"312.8 K, 23700 kPa, w2 = 0.212",3.25 ± 0.14
same,relative permittivity,"312.8 K, 26300 kPa, w2 = 0.212",3.3 ± 0.14
same,relative permittivity,"312.8 K, 28100 kPa, w2 = 0.212",3.32 ± 0.14
same,relative permittivity,"312.8 K, 28400 kPa, w2 = 0.212",3.34 ± 0.14
same,relative permittivity,"312.8 K, 30800 kPa, w2 = 0.212",3.37 ± 0.14
same,relative permittivity,"313 K, 9700 kPa, w2 = 0.05",1.63 ± 0.14
same,relative permittivity,"313 K, 9800 kPa, w2 = 0.05",1.64 ± 0.14
same,relative permittivity,"313 K, 9900 kPa, w2 = 0.05",1.65 ± 0.14
same,relative permittivity,"313 K, 11300 kPa, w2 = 0.05",1.7 ± 0.14
same,relative permittivity,"313 K, 11700 kPa, w2 = 0.05",1.7 ± 0.14
same,relative permittivity,"313 K, 11800 kPa, w2 = 0.05",1.7 ± 0.14
same,relative permittivity,"313 K, 13200 kPa, w2 = 0.05",1.74 ± 0.14
same,relative permittivity,"313 K, 13700 kPa, w2 = 0.05",1.74 ± 0.14
same,relative permittivity,"313 K, 15100 kPa, w2 = 0.05",1.77 ± 0.14
same,relative permittivity,"313 K, 15700 kPa, w2 = 0.05",1.78 ± 0.14
same,relative permittivity,"313 K, 17400 kPa, w2 = 0.05",1.8 ± 0.14
same,relative permittivity,"313 K, 17500 kPa, w2 = 0.05",1.8 ± 0.14
same,relative permittivity,"313 K, 19200 kPa, w2 = 0.05",1.82 ± 0.14
same,relative permittivity,"313 K, 20700 kPa, w2 = 0.05",1.83 ± 0.14
same,relative permittivity,"313 K, 21600 kPa, w2 = 0.05",1.84 ± 0.14
same,relative permittivity,"313 K, 23500 kPa, w2 = 0.05",1.86 ± 0.14
same,relative permittivity,"313 K, 25300 kPa, w2 = 0.05",1.87 ± 0.14
same,relative permittivity,"313 K, 25400 kPa, w2 = 0.05",1.87 ± 0.14
same,relative permittivity,"313 K, 27400 kPa, w2 = 0.05",1.89 ± 0.14
same,relative permittivity,"313 K, 30400 kPa, w2 = 0.05",1.91 ± 0.14
same,relative permittivity,"313.1 K, 9700 kPa, w2 = 0.1",1.98 ± 0.15
same,relative permittivity,"313.1 K, 10100 kPa, w2 = 0.152",2.37 ± 0.14
same,relative permittivity,"313.1 K, 10200 kPa, w2 = 0.1",2 ± 0.14
same,relative permittivity,"313.1 K, 10900 kPa, w2 = 0.152",2.39 ± 0.14
same,relative permittivity,"313.1 K, 11000 kPa, w2 = 0.1",2.03 ± 0.14
same,relative permittivity,"313.1 K, 11800 kPa, w2 = 0.152",2.42 ± 0.14
same,relative permittivity,"313.1 K, 12000 kPa, w2 = 0.1",2.05 ± 0.14
same,relative permittivity,"313.1 K, 12700 kPa, w2 = 0.1",2.08 ± 0.14
same,relative permittivity,"313.1 K, 12700 kPa, w2 = 0.152",2.45 ± 0.14
same,relative permittivity,"313.1 K, 13100 kPa, w2 = 0.1",2.09 ± 0.14
same,relative permittivity,"313.1 K, 13700 kPa, w2 = 0.1",2.11 ± 0.14
same,relative permittivity,"313.1 K, 13800 kPa, w2 = 0.152",2.47 ± 0.14
same,relative permittivity,"313.1 K, 14600 kPa, w2 = 0.152",2.49 ± 0.14
same,relative permittivity,"313.1 K, 14800 kPa, w2 = 0.1",2.13 ± 0.14
same,relative permittivity,"313.1 K, 15700 kPa, w2 = 0.152",2.52 ± 0.14
same,relative permittivity,"313.1 K, 15800 kPa, w2 = 0.1",2.15 ± 0.14
same,relative permittivity,"313.1 K, 16800 kPa, w2 = 0.152",2.54 ± 0.14
same,relative permittivity,"313.1 K, 17000 kPa, w2 = 0.1",2.17 ± 0.14
same,relative permittivity,"313.1 K, 17700 kPa, w2 = 0.1",2.18 ± 0.14
same,relative permittivity,"313.1 K, 17800 kPa, w2 = 0.152",2.56 ± 0.14
same,relative permittivity,"313.1 K, 18800 kPa, w2 = 0.1",2.19 ± 0.14
same,relative permittivity,"313.1 K, 18800 kPa, w2 = 0.152",2.58 ± 0.14
same,relative permittivity,"313.1 K, 19500 kPa, w2 = 0.152",2.59 ± 0.14
same,relative permittivity,"313.1 K, 19800 kPa, w2 = 0.1",2.2 ± 0.14
same,relative permittivity,"313.1 K, 20800 kPa, w2 = 0.152",2.61 ± 0.14
same,relative permittivity,"313.1 K, 21600 kPa, w2 = 0.152",2.62 ± 0.14
same,relative permittivity,"313.1 K, 21900 kPa, w2 = 0.1",2.23 ± 0.14
same,relative permittivity,"313.1 K, 22100 kPa, w2 = 0.1",2.23 ± 0.14
same,relative permittivity,"313.1 K, 22400 kPa, w2 = 0.1",2.24 ± 0.14
same,relative permittivity,"313.1 K, 22600 kPa, w2 = 0.152",2.63 ± 0.14
same,relative permittivity,"313.1 K, 23500 kPa, w2 = 0.152",2.64 ± 0.14
same,relative permittivity,"313.1 K, 24100 kPa, w2 = 0.1",2.26 ± 0.14
same,relative permittivity,"313.1 K, 24400 kPa, w2 = 0.1",2.26 ± 0.14
same,relative permittivity,"313.1 K, 24500 kPa, w2 = 0.152",2.66 ± 0.14
same,relative permittivity,"313.1 K, 25500 kPa, w2 = 0.152",2.67 ± 0.14
same,relative permittivity,"313.1 K, 25800 kPa, w2 = 0.1",2.28 ± 0.14
same,relative permittivity,"313.1 K, 26400 kPa, w2 = 0.1",2.28 ± 0.14
same,relative permittivity,"313.1 K, 26500 kPa, w2 = 0.152",2.68 ± 0.14
same,relative permittivity,"313.1 K, 27500 kPa, w2 = 0.152",2.69 ± 0.14
same,relative permittivity,"313.1 K, 27700 kPa, w2 = 0.1",2.3 ± 0.14
same,relative permittivity,"313.1 K, 27800 kPa, w2 = 0.1",2.3 ± 0.14
same,relative permittivity,"313.1 K, 27900 kPa, w2 = 0.152",2.7 ± 0.14
same,relative permittivity,"313.1 K, 28300 kPa, w2 = 0.1",2.3 ± 0.14
same,relative permittivity,"313.1 K, 28400 kPa, w2 = 0.152",2.71 ± 0.14
same,relative permittivity,"313.1 K, 29300 kPa, w2 = 0.1",2.31 ± 0.14
same,relative permittivity,"313.1 K, 29300 kPa, w2 = 0.152",2.72 ± 0.14
same,relative permittivity,"313.1 K, 29500 kPa, w2 = 0.1",2.32 ± 0.14
same,relative permittivity,"322.4 K, 10500 kPa, w2 = 0.1",1.86 ± 0.14
